Experimental data: patent US12661338B2, “Heterocyclic compounds as modulators of beta-catenin / TCF4 interaction” (AGENCY FOR SCIENCE, TECHNOLOGY AND RESEARCH, priority 2019, dated 2026)
Where two headings read alike, the source gives them in different places.

Assays:
Format in all cases: cell-based
[1] = test system: Wnt signalling (TOPFlash reporter, STF cells); assay: Wnt STF TOPFlash reporter dose response (Wnt3A-stimulated)
Protocol: (§1) Wnt STF reporter cells (HEK 293 cells stably transfected with TOPFlash reporter) and STF3A reporter cells (STF cells with constitutive secretion of Wnt3A) were kind gifts from David Virshup (Duke-NUS Graduate Medical School, Singapore). HCT116, DLD-1, and SW480 cell lines were obtained from ATCC. The Hippo pathway TEAD reporter (cat. #60618) and Myc signalling pathway reporter (cat. #60520) cells lines were purchased from BPS Bioscience, Inc.
(§2) The Wnt STF reporter cells were seeded as 20,000 cells in 100 μL culture medium per well in 96-well plates (Corning cat. #3903, Falcon cat. #353072). The next day, 5-fold dilutions of the compounds in DMSO were added to the cells at a final concentration of 1% DMSO. The cells were also stimulated with 500 ng/mL recombinant human Wnt3A (RnD systems, cat. #5036-WN-010). After 24 hr incubation, the viability of the cells was determined with cell counting kit-8 (CCK-8, Dojindo cat. #CK04) cell viability reagent according to the manufacturer's protocol while the TOPFlash reporter activity was determined with Steady-Glo luciferase reagent.
(§3) The average signal from DMSO treated wells was calculated for each plate, and the signal from each treatment well was normalized against the average DMSO signal from the respective plate. The normalized values were plotted against the concentrations tested using GraphPad Prism 5, and the EC50 values were determined through either three- or four-parameter nonlinear regression.

[2] = test system: Wnt signalling (TOPFlash reporter, STF3A cells); assay: Wnt STF3A TOPFlash reporter dose response (constitutive Wnt3A)
Protocol: as §1
as §2, with “STF3A” for “STF”, “DMSO.” for “DMSO. The cells were also stimulated with 500 ng/mL recombinant human Wnt3A (RnD systems, cat. #5036-WN-010).”
as §3

[3] = test system: Hippo pathway TEAD reporter cells; assay: Hippo signalling TEAD reporter dose response; conditions: 24 hr, inhibition of the Hippo pathway, read-out: IC50 Hippo
Protocol: The Hippo TEAD reporter cells were seeded as 100,000 cells in 100 μL assay medium per well in 96-well plates (Corning cat. #3903, Falcon cat. #353072). The assay medium consists of the growth medium without G-418. The next day, 5-fold dilutions of the compounds in DMSO were added to the cells at a final concentration of 1% DMSO. After 24 hr incubation, the viability of the cells was determined with CCK-8 cell viability reagent while the luciferase reporter activity was determined with Steady-Glo luciferase reagent.
as §3

[4] = test system: STF cells; assay: Viability (toxicity) of STF reporter cells, CCK-8; conditions: Table 3; STF reporter cell line
Protocol: as §2, §3

[5] = test system: Wnt target proteins in HCT116 cells; assay: Western blotting of Wnt target and Wnt pathway proteins in HCT116 cells; conditions: 50 μM, 18 hr
Protocol: HCT116 cells were treated with compounds for 18 hr at a final concentration of 50 μM, 1% DMSO. Cells were lysed on ice in RIPA buffer (Thermo cat. #89900) containing cOmplete™ protease inhibitor cocktail (Roche cat. #11697498001) and PhosSTOP phosphatase inhibitor cocktail (Roche cat. #04906837001). 30 μg per sample of total cellular protein was resolved by SDS-PAGE and blotted onto PVDF membrane (Millipore cat. #IPVH00010). Primary antibodies were incubated overnight at 4° C. and the blots were detected with either IRDye 800CW goat anti-rabbit antibody (LI-COR cat. #926-32211) or IRDye 680RD goat anti-mouse antibody (LI-COR cat. #926-68070) at 1:5000 dilution. Signals were visualized with the LI-COR Odyssey CLx imaging system and bands were quantified using LI-COR Image Studio data analysis software. The primary antibodies used were Met (Cell Signalling Technology cat. #8198, 1:1000), cyclin D1 (Cell Signalling Technology cat. #2978, 1:1000), survivin (Santa Cruz cat. #sc-10811, 1:500), ECAD (Cell Signalling Technology cat. #3195, 1:1000), TCF4/TCF7L2 (Cell Signalling Technology cat. #2569, 1:1000), β-cat (Cell Signalling Technology cat. #8480, 1:1000), β-actin (Abcam cat. #ab8226, 1:3000).

[6] = test system: HCT116 cells; assay: Proliferation assay (CellTiter-Glo); conditions: 10 μM daily
Protocol: HCT 116 cells were seeded as 3,000 cells in 100 μL growth medium per well in 96-well plates (Corning cat. #3903) and allowed to attached overnight. Cells were then treated continuously with compounds at a final concentration of 10 μM, 0.1% DMSO, for 4 days with daily medium change. Cell proliferation each day was determined using CellTiter-Glo luminescent cell viability assay (Promega cat. #G7573) according to the manufacturer's protocol.

[7] = test system: HCT116 cells; assay: Spheroid formation assay; conditions: HCT116, 30 μM
Protocol: HCT116, DLD-1, and SW480 cells were seeded as 150 cells in 200 μL spheroid medium per well in 96-well ultra-low attachment plates (Corning cat. #3474). The compounds were added on the day of cell seeding at a final concentration of 30 μM, 0.5% DMSO. The cells were grown at 37° C., 5% CO2 and images of the spheroids formed were taken on days 7 and 10 after cell seeding using the Operetta CLS system (Perkin Elmer).

[8] = test system: Wnt target genes in HCT116 CRC cells; assay: Expression of beta-catenin (CTNNB1) and Wnt target genes in HCT116 CRC cells
Protocol: The effects of the GB1874 analogues were tested on the expression of Wnt target genes in HCT116 CRC cells.

[9] = test system: CRC1177; assay: Viability of primary patient-derived colorectal cancer cell line
[10] = test system: CRC1258; assay: as above; conditions: CRC1258, Liver Met
[11] = test system: CRC1463; assay: as above
[12] = test system: CRC1837; assay: as above; conditions: CRC1837, Liver Met
[13] = test system: CRC2001; assay: as above
[14] = test system: CRC2367; assay: as above

`CCc1ccc(OCc2nnc(SC3CCCC3=O)n2C(C)c2ccccc2)cc1` (stereo not shown) [GB1874] gave an IC50 ([1]; Table 1, STF reporter cells, 500 ng/mL Wnt3A, 24 hr, read-out: IC50 Wnt (STF)) of 11 µM, an IC50 ([1]; Table 3, STF reporter cell line, read-out: STF Inhibition IC50) of 6.8 µM and an IC50 ([1]; unit M, read-out: STF IC50) of 6.8 µM. For the same molecule, the IC50 ([2]; Table 1, STF3A reporter cells, 24 hr, read-out: IC50 Wnt (STF3A)) was 26 µM, the IC50 ([2]; Table 3, STF3A reporter cell line, read-out: STF3A Inhibition IC50) was 27 µM and the IC50 [3] was over 100 µM. For the same molecule, the IC50 [4] was 66 µM, the “expression of Wnt target genes c-Met, cyclin D1 and survivin (Western blotting)” value [5] was “most effective at reducing the expression of these proteins” and the “expression of β-cat, ECAD and TCF4 (Western blotting)” value [5] was “minimal effect on the expression of β-cat itself, or the expression of its partner proteins, such as ECAD and TCF4”. For the same molecule, the “growth of HCT116 cells” value [6] was “effectively inhibited the growth of HCT116 cells”, the spheroid formation [7] was “markedly reduce survival of the cancer stem-like cells” and the “beta-catenin (CTNNB1) gene expression” value [8] was “lesser effect”. For the same molecule, the “expression of Wnt target genes AXIN2, BIRC5, BMP4, CCND1” value [8] was “potently inhibit Wnt target genes”, the EC50 [9] was 19 µM and the EC50 [10] was 27 µM. For the same molecule, the EC50 [11] was 27 µM, the EC50 [12] was 21 µM and the EC50 [13] was 25 µM. The EC50 [14] was 20 µM.
